The term IC50 denotes the midpoint of a concentration-inhibition curve. Read a low IC50 as greater potency.

SMILES strings stand for the structures.

For the assay, the system named is production of TNF by monocytes activated with bacterial lipopolysaccharide (LPS). The experiment in a line: Lipopolysaccharide-activated monocyte TNF production assay. It is filed as cell-based. As to conditions: Homo sapiens; whole blood monocyte assay (LPS induced TNF release). The method, then:
Test compounds were evaluated in vitro for the ability to inhibit the production of TNF by monocytes activated with bacterial lipopolysaccharide (LPS). Fresh residual source leukocytes (a byproduct of plateletpheresis) were obtained from a local blood bank, and peripheral blood mononuclear cells (PBMCs) were isolated by density gradient centrifugation on Ficol-Paque Plus (Pharmacia). PBMCs were suspended at 2×10^6/mL in DMEM supplemented to contain 2% FCS, 10 mM, 0.3 mg/mL […], 100 U/mL penicillin G and […] streptomycin sulfate (complete media). Cells were plated into Falcon flat bottom, 96 well culture plates (200 μL/well) and cultured overnight at 37° C. and 6% CO2. Non-adherent cells were removed by washing with 200 μl/well of fresh medium.
Test compounds were dissolved in […]. Compound stock solutions were prepared to an initial concentration of […]. Stocks were diluted initially to 20-200 μM in complete media. Nine two-fold serial dilutions of each compound were then prepared in complete medium.
One hundred microliters of each test compound dilution were added to microtiter wells containing adherent monocytes and 100 μL complete medium. Monocytes were cultured with test compounds for 60 min at which time 25 μL of complete medium containing 30 ng/mL lipopolysaccharide from E. coli K532 were added to each well. Cells were cultured an additional 4 hrs. Culture supernatants were then removed and TNF presence in the supernatants was quantified using an ELISA.
Flat bottom, 96 well Corning High Binding ELISA plates were coated overnight (4° C.) with 150 μL/well of 3 μg/mL murine anti-human TNF-α MAb (R&D Systems #MAB210). Wells were then blocked for 1 h at room temperature with 200 μL/well of CaCl2-free ELISA buffer supplemented to contain 20 mg/mL BSA (standard ELISA buffer: […], 150 mM NaCl, 2 mM CaCl2, 0.15 mM thimerosal, pH 7.4). Plates were washed and replenished with 100 μL of test supernatants (diluted 1:3) or standards. Standards consisted of eleven 1.5-fold serial dilutions from a stock of I ng/mL recombinant human TNF (R&D Systems). Plates were incubated at room temperature for 1 h on orbital shaker (300 rpm), washed and replenished with 100 μL/well of 0.5 μg/mL goat anti-human TNF-α (R&D systems #AB-210-NA) biotinylated at a 4:1 ratio. Plates were incubated for 40 min, washed and replenished with 100 μL/well of alkaline phosphatase-conjugated streptavidin (Jackson ImmunoResearch #016-050-084) at 0.02 μg/mL. Plates were incubated 30 min, washed and replenished with 200 μL/well of 1 mg/mL of p-nitrophenyl phosphate. After 30 min, plates were read at 405 nm on a Vmax plate reader.
Standard curve data were fit to a second order polynomial and unknown TNF-α concentrations determined from their OD by solving this equation for concentration. TNF concentrations were then plotted vs. test compound concentration using a second order polynomial. This equation was then used to calculate the concentration of test compounds causing a 50% reduction in TNF production.
Consider `Cc1ccc(C(=O)NC2CC2)cc1-c1ccc2c(C(C)C)nncc2c1` [Example 13, N-Cyclopropyl-3-(1-isopropylphthalazin-6-yl)-4-methylbenzamide], for which the IC50 was ≤ 5 µM.

Take `Cc1ccc(C(=O)NC2CC2)cc1-c1ccc2c(-c3ccc(C(C)(C)C(=O)O)cc3)nncc2c1` [Example 205, 2-[4-(6-{5-[(cyclopropylamino)carbonyl]-2-methylphenyl}phthalazin-1-yl)phenyl]-2-methylpropanoic acid]: the IC50 is ≤ 5 µM.

With `Cc1ccc(C(=O)NC2CC2)cc1-c1ccc2c(N3CCC(=O)CC3)nncc2c1` [Example 58, N-cyclopropyl-4-methyl-3-[1-(4-oxopiperidin-1-yl)phthalazin-6-yl]benzamide], the concentration for half-maximal inhibition (IC50) is ≤ 5 µM.

In the case of `Cc1ccc(C(=O)NC2CC2)cc1-c1ccc2c(N3CCN(C(=O)Nc4ccccc4)CC3)nncc2c1` [Example 124, 4-(6-{5-[(cyclopropylamino)carbonyl]-2-methylphenyl}phthalazin-1-yl)-N-phenylpiperazine-1-carboxamide], the concentration for half-maximal inhibition (IC50) was ≤ 5 µM.

For `CCNc1noc2c(-c3ccc4c(N5CCOC[C@@H]5C)nncc4c3)c(C)ccc12` [Example 384, N-ethyl-6-methyl-7-{1-[(3S)-3-methylmorpholin-4-yl]phthalazin-6-yl}-1,2-benzisoxazol-3-amine], the half-maximal inhibitory concentration (IC50) was ≤ 5 µM.

Turning to `Cc1ccc(C(=O)NC(C)C)cc1-c1ccc2c(NC(C)C)nncc2c1` [Example 404, N-isopropyl-3-[1-(isopropylamino)phthalazin-6-yl]-4-methylbenzamide], the IC50 is ≤ 5 µM.

Take `Cc1ccc(C(=O)NC2CC2)cc1-c1ccc2c(N3CCN4C(=O)OC[C@@H]4C3)nncc2c1` [Example 101, 3-{1-[(8aS)-3-oxotetrahydro[1,3]oxazolo[3,4-a]pyrazin-7(1H)-yl]phthalazin-6-yl}-N-cyclopropyl-4-methylbenzamide]: the half-inhibitory concentration (IC50) is ≤ 5 µM.

As for `Cc1ccc(C(=O)NC2CC2)cc1-c1ccc2c(N3CCC[C@@H](C(N)=O)C3)nncc2c1` [Example 132, (3R)-1-(6-{5-[(cyclopropylamino)carbonyl]-2-methylphenyl}phthalazin-1-yl)piperidine-3-carboxamide], the IC50 was ≤ 5 µM.

For the molecule `Cc1ccc(C(=O)NC2CC2)cc1-c1ccc2c(N3CCN[C@H](C)C3)nncc2c1` [Example 140, N-cyclopropyl-4-methyl-3-{1-[(3R)-3-methylpiperazin-1-yl]phthalazin-6-yl}benzamide], the IC50 is ≤ 5 µM.

In the case of `Cc1cc(NC(=O)c2ccc(C)c(-c3ccc4c(N5CCOCC5)nncc4c3)c2)no1` [Example 380, 4-methyl-N-(5-methylisoxazol-3-yl)-3-(1-morpholin-4-ylphthalazin-6-yl)benzamide], the IC50 is ≤ 5 µM.

On to `Cc1ccc(C(N)=O)cc1-c1ccc2c(-c3ccc(Cl)cc3Cl)nncc2c1` [Example 223, 3-[1-(2,4-dichlorophenyl)phthalazin-6-yl]-4-methylbenzamide], for which the IC50 was ≤ 5 µM.

With `COc1nc(N(C)C)ncc1-c1nncc2cc(-c3cc(C(=O)NC4CC4)ccc3C)ccc12` [Example 197, N-cyclopropyl-3-{1-[2-(dimethylamino)-4-methoxypyrimidin-5-yl]phthalazin-6-yl}-4-methylbenzamide], the IC50 was ≤ 5 µM.

`Cc1sc(C(=O)NC2CC2)cc1-c1ccc2c(N3CCOCC3)nncc2c1` [Example 80, N-Cyclopropyl-5-methyl-4-(1-morpholin-4-ylphthalazin-6-yl)thiophene-2-carboxamide]: the half-maximal inhibitory concentration (IC50) is ≤ 5 µM.

Consider `Cc1ccc(C(=O)NC2CC2)cc1-c1ccc2c(C3=CCN(C(=O)OC(C)(C)C)CC3)nncc2c1` [Example 153, tert-butyl 4-(6-{5-[(cyclopropylamino)carbonyl]-2-methylphenyl}phthalazin-1-yl)-3,6-dihydropyridine-1(2H)-carboxylate], for which the IC50 was ≤ 5 µM.

Turning to `Cc1ccc(C(=O)NC2CC2)cc1-c1ccc2c(-c3ccccc3F)nncc2c1` [Example 246, N-cyclopropyl-3-[1-(2-fluorophenyl)phthalazin-6-yl]-4-methylbenzamide], the 50% inhibitory concentration (IC50) was ≤ 5 µM.

As to `Cc1ccc(C(=O)NC2CC2)cc1-c1ccc2c(NC3CCOCC3)nncc2c1` [Example 329, N-cyclopropyl-4-methyl-3-[1-(tetrahydro-2H-pyran-4-ylamino)phthalazin-6-yl]benzamide], the IC50 was ≤ 5 µM.

On to `Cc1ccc(C(=O)NC2CC2)cc1-c1ccc2c(N(C)C)nncc2c1` [Example 187, N-cyclopropyl-3-[1-(dimethylamino)phthalazin-6-yl]-4-methylbenzamide], for which the concentration for half-maximal inhibition (IC50) is ≤ 5 µM.

In the case of `CNc1noc2c(-c3ccc4c(N5C[C@@H](C)OC[C@H]5C)nncc4c3)c(C)ccc12` [Example 65, 7-(1-((2R,5R)-2,5-dimethylmorpholino)phthalazin-6-yl)-N,6-dimethylbenzo [d]isoxazol-3-amine], the IC50 was ≤ 5 µM.

For `Cc1ccc(C(=O)NC2CC2)cc1-c1ccc2c(N3CCCC[C@H]3C)nncc2c1` [Example 180, N-cyclopropyl-4-methyl-3-{1-[(2R)-2-methylpiperidin-1-yl]phthalazin-6-yl}benzamide], the IC50 is ≤ 5 µM.

For `COC[C@H](C)Nc1nncc2cc(-c3cc(C(N)=O)ccc3C)ccc12` [Example 190, 3-(1-{[(1S)-2-methoxy-1-methylethyl]amino}phthalazin-6-yl)-4-methylbenzamide], the IC50 is ≤ 5 µM.

As for `CC[C@H](C)Nc1nncc2cc(-c3c(C)ccc4c(NC)noc34)ccc12` [Example 365, 6-[6-methyl-3-(methylamino)-1,2-benzisoxazol-7-yl]-N-[(1S)-1-methylpropyl]phthalazin-1-amine], the IC50 was ≤ 5 µM.

For `Cc1ccc(C(N)=O)cc1-c1ccc2c(N3C[C@H](C)OC[C@@H]3C)nncc2c1` [Example 119, 3-{1-[(2S,5S)-2,5-dimethylmorpholin-4-yl]phthalazin-6-yl}-4-methylbenzamide], the IC50 was ≤ 5 µM.

For the molecule `Cc1ccc(-c2nncc3cc(-c4cc(C(=O)NC5CC5)ccc4C)ccc23)cc1` [Example 131, N-cyclopropyl-4-methyl-3-[1-(4-methylphenyl)phthalazin-6-yl]benzamide], the IC50 is ≤ 5 µM.

`COc1cc(-c2nncc3cc(-c4cc(C(N)=O)ccc4C)ccc23)c(C)cn1` [Example 252, 3-[1-(2-methoxy-5-methylpyridin-4-yl)phthalazin-6-yl]-4-methylbenzamide]: the 50% inhibitory concentration (IC50) is ≤ 5 µM.

With `CCOC(=O)c1ccc(C)c(-c2ccc3c(NC(C)C)nncc3c2)c1` [Example 138, ethyl 3-[1-(isopropylamino)phthalazin-6-yl]-4-methylbenzoate], the IC50 is ≤ 5 µM.

For `Cc1ccc(C(=O)NC2CC2)cc1-c1ccc2c(C(N)=O)nncc2c1` [Example 83, 6-{5-[(Cyclopropylamino)carbonyl]-2-methylphenyl}phthalazine-1-carboxamide], the IC50 was ≤ 5 µM.

Regarding `COc1ccc(-c2nncc3cc(-c4cc(C(N)=O)ccc4C)ccc23)c(C(F)(F)F)c1` [Example 237, 3-{1-[4-methoxy-2-(trifluoromethyl)phenyl]phthalazin-6-yl}-4-methylbenzamide], the concentration for half-maximal inhibition (IC50) was ≤ 5 µM.

Turning to `Cc1ccc(-c2nncc3cc(-c4cc(C(=O)NC5CC5)ccc4C)ccc23)c(Cl)c1` [Example 235, 3-[1-(2-chloro-4-methylphenyl)phthalazin-6-yl]-N-cyclopropyl-4-methylbenzamide], the IC50 is ≤ 5 µM.

`CNS(=O)(=O)c1ccc(C)c(-c2ccc3c(NC(C)C)nncc3c2)c1` [Example 358, 3-[1-(isopropylamino)phthalazin-6-yl]-N,4-dimethylbenzenesulfonamide]: the 50% inhibitory concentration (IC50) was ≤ 5 µM.

For `Cc1ccc(C(N)=O)cc1-c1ccc2c(Oc3ccccc3)nncc2c1` [Example 406, 4-methyl-3-(1-phenoxyphthalazin-6-yl)benzamide], the IC50 is ≤ 5 µM.

On to `COc1ccc(-c2nncc3cc(-c4cc(C(N)=O)ccc4C)ccc23)c(OC)c1` [Example 226, 3-[1-(2,4-dimethoxyphenyl)phthalazin-6-yl]-4-methylbenzamide], for which the IC50 was ≤ 5 µM.

Turning to `CCOc1ccc(-c2nncc3cc(-c4cc(C(N)=O)ccc4C)ccc23)c(Cl)c1` [Example 231, 3-[1-(2-chloro-4-ethoxyphenyl)phthalazin-6-yl]-4-methylbenzamide], the IC50 was ≤ 5 µM.
